This data set can be described thus: Pharmacokinetic Measurement in BALB/c Mice (oral gavage, plasma LC-MS/MS). Conditions: parent compound after oral administration, compared with prodrug and Naltrexone from prodrug; FIGS. 1 and 2.

Procedure: This study tested the bioavailability of different test compounds in rats, by oral gavage administration, at prescribed dose levels.
Male BALB/c mice, body weight approximately 1925 g, were purchased from BioLASCO Taiwan Co., Ltd. and kept in the Animal Laboratory of Industrial
LC-MS/MS: ABSCIEX 4000 QTRAP LC-MS/MS System; Polarity: positive mode; Column: XBridge RP18, 3.5 μm, 4.6×20 mm; Flow rate: 0.7 mL/min; Injection volume: 10 μL; Temperature: Room temperature; Running time: 5 min.
Blood aliquots (40 μL) were collected from jugular vein catheterized BALB/c in tubes coated with K2-EDTA, mixed gently, then kept on ice and centrifuged at 7000×g for 15 minutes at 4° C. The plasma was then harvested and kept frozen at −80° C. until further processing.
The plasma samples were processed using acetonitrile precipitation and analyzed by LC-MS/MS. A plasma calibration curve was generated. […]
The spiked plasma samples were processed together with the unknown plasma samples using the same procedure. The processed plasma samples were stored at −80° C. until the LC-MS/MS analysis, at which time peak areas were recorded, and the concentrations of the test compound in the unknown plasma samples were determined using the respective calibration curve. The reportable linear range of the assay was determined, along with the lower limit of quantitation (LOQ). […]

For `O=C1CC[C@@]2(O)[C@H]3Cc4ccc(O)c5c4[C@@]2(CCN3CC2CC2)[C@H]1O5` [Naltrexone], the “concentration in blood with respect to time” value was “raised rapidly and reached the highest level”.

The record behind these values is patent publication US11130771B2, “Prodrugs of Naltrexone, Nalmefene and derivatives thereof” (TAIWANJ PHARMACEUTICALS CO., LTD., priority 2018, dated 2021).
